Data on 22 compounds can be found in ChEMBL document CHEMBL1126483 (Bioorg Med Chem Lett, 1993).

Assay [1] addresses Neurotensin receptor type 1 (Mus musculus) (UniProt O88319). Kind of assay: Tested for change in binding affinity to Neurotensin (NT) receptor in neonatal mouse whole brain (minus cerebellum). It counts as tissue-based.
Assay [2] deals with Neurotensin receptor type 1 (Mus musculus, UniProt O88319). The assay is described as follows: Inhibition of specific binding of [125I]-Tyr3-NT(1-13) to NT receptors in neonatal mouse whole brain (minus cerebellum). It counts as tissue-based.
In assay [3] the target is Neurotensin receptor type 1 (Mus musculus) (UniProt O88319). To be noted: Cerebellum.
Description: Tested for change in binding affinity in neonatal mouse whole brain (minus cerebellum)

Structures are written as SMILES. Peptide text beside a SMILES is read from it.

Sequence of Neurotensin receptor type 1 (O88319 whole entry): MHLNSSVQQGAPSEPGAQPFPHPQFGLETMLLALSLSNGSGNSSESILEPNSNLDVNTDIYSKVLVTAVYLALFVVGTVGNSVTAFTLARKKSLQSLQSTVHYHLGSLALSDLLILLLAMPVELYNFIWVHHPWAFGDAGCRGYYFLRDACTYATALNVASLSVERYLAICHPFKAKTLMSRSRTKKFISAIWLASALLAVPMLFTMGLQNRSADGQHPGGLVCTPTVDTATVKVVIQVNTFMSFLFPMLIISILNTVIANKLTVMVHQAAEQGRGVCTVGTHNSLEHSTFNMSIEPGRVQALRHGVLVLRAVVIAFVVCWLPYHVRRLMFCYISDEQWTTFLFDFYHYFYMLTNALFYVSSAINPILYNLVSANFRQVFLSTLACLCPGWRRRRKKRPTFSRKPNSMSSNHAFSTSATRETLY
Sequence of Neurotensin receptor type 1 (Mus musculus) (O88319 whole entry): as above

Turning to `CC[C@@H](C)[C@H](NC(=O)[C@H](Cc1ccc(O)cc1)NC(=O)[C@@H]1CCCN1C(=O)[C@H](CCCN=C(N)N)NC(=O)[C@H](C)N)C(=O)N[C@@H](CC(C)C)C(=O)O`, in assay [1], the Ki ratio stood at 14.
With `CC[C@@H](C)[C@H](NC(=O)[C@H](Cc1ccc(O)cc1)NC(=O)[C@@H]1CCCN1C(=O)[C@H](CCCN=C(N)N)NC(=O)[C@@H](N)CCCN=C(N)N)C(=O)N[C@@H](C)C(=O)O`, the Ki ratio in assay [1] worked out at 11000.
On the same count and under the same terms, the result for `CC(C)C[C@H](NC(=O)[C@H](C)NC(=O)[C@H](Cc1ccc(O)cc1)NC(=O)[C@@H]1CCCN1C(=O)[C@H](CCCN=C(N)N)NC(=O)[C@@H](N)CCCN=C(N)N)C(=O)O` (H-RRPYAL-OH) reads 250; that for `CC[C@@H](C)[C@H](NC(=O)[C@H](Cc1ccc(O)cc1)NC(=O)[C@H](C)NC(=O)[C@H](CCCN=C(N)N)NC(=O)[C@@H](N)CCCN=C(N)N)C(=O)N[C@@H](CC(C)C)C(=O)O`, 50.
One may read the Ki as the dissociation constant of the complex between target and ligand, obtained from inhibition or displacement. A high value points to a looser hold on the target. Turning to `CC[C@H](C)[C@H](NC(=O)[C@H](Cc1ccc(O)cc1)NC(=O)[C@@H]1CCCN1C(=O)[C@H](CCCNC(=N)N)NC(=O)[C@H](CCCNC(=N)N)NC(=O)[C@@H]1CCCN1C(=O)[C@H](CCCCN)NC(=O)[C@H](CC(N)=O)NC(=O)[C@H](CCC(=O)O)NC(C)=O)C(=O)N[C@@H](CC(C)C)C(=O)O` (Ac-ENKPRRPYIL-OH), the Ki in assay [2] is 0.12 nM.
The same measure, in the same setting: next, `CC[C@H](C)[C@H](NC(=O)[C@H](Cc1ccc(O)cc1)NC(=O)[C@@H]1CCCN1C(=O)[C@H](CCCNC(=N)N)NC(=O)[C@H](CCCNC(=N)N)NC(=O)[C@@H]1CCCN1C(=O)[C@H](CCCCN)NC(C)=O)C(=O)N[C@@H](CC(C)C)C(=O)O`: 0.024 nM; `CC[C@H](C)[C@H](NC(=O)[C@H](C)NC(=O)[C@@H]1CCCN1C(=O)[C@H](CCCN=C(N)N)NC(=O)[C@@H](N)CCCN=C(N)N)C(=O)N[C@@H](C)C(=O)O`: 3900 nM.
Same read-out and setting: next, `CC[C@H](C)[C@H](NC(=O)[C@H](Cc1ccc(O)cc1)NC(=O)[C@@H]1CCCN1C(=O)[C@H](CCCNC(=N)N)NC(=O)[C@@H](N)CCCNC(=N)N)C(N)=O`: 12000 nM; `CC(C)C[C@H](NC(=O)[C@H](C)NC(=O)[C@H](Cc1ccc(O)cc1)NC(=O)[C@@H]1CCCN1C(=O)[C@H](CCCNC(=N)N)NC(=O)[C@@H](N)CCCNC(=N)N)C(=O)O` (H-RRPYAL-OH): 4.5 nM.
In turn, `CC[C@@H](C)[C@H](NC(=O)[C@H](Cc1ccc(O)cc1)NC(=O)[C@@H]1CCCN1C(=O)[C@H](CCCNC(=N)N)NC(=O)[C@@H](N)CCCNC(=N)N)C(=O)N[C@@H](CC(C)C)C(=O)O` registered a Ki(1.8x10e-11) in assay [3] of 1 M.
Turning to `CC[C@H](C)[C@H](NC(=O)[C@H](C)NC(=O)[C@@H]1CCCN1C(=O)[C@H](CCCN=C(N)N)NC(=O)[C@@H](N)CCCN=C(N)N)C(=O)N[C@@H](CC(C)C)C(=O)O`, in assay [2], the Ki is 110 nM. This lies in the sub-micromolar range.
The same measure, in the same setting: next, `CC[C@H](C)[C@H](NC(=O)[C@H](Cc1ccc(O)cc1)NC(=O)[C@@H]1CCCN1C(=O)[C@H](CCCNC(=N)N)NC(=O)[C@H](CCCNC(=N)N)NC(=O)[C@@H]1CCCN1C(=O)[C@H](CCCCN)NC(=O)[C@H](CC(N)=O)NC(=O)[C@H](CCC(=O)O)NC(=O)[C@H](Cc1ccc(O)cc1)NC(=O)[C@H](CC(C)C)NC(C)=O)C(=O)N[C@@H](CC(C)C)C(=O)O`: 0.11 nM; `CC[C@H](C)[C@H](NC(=O)[C@H](Cc1ccc(O)cc1)NC(=O)[C@H](C)NC(=O)[C@H](CCCN=C(N)N)NC(=O)[C@@H](N)CCCN=C(N)N)C(=O)N[C@@H](CC(C)C)C(=O)O`: 0.92 nM.
`CC[C@@H](C)[C@H](NC(=O)[C@H](Cc1ccc(O)cc1)NC(=O)[C@@H]1CCCN1C(=O)[C@H](C)NC(=O)[C@@H](N)CCCN=C(N)N)C(=O)N[C@@H](CC(C)C)C(=O)O`: the Ki ratio in assay [1] is 120.
On the same count and under the same terms, the result for `CC[C@@H](C)[C@H](NC(=O)[C@H](C)NC(=O)[C@@H]1CCCN1C(=O)[C@H](CCCN=C(N)N)NC(=O)[C@@H](N)CCCN=C(N)N)C(=O)N[C@@H](C)C(=O)O` reads 220000.
In the case of `CC[C@H](C)[C@H](NC(=O)[C@H](Cc1ccc(O)cc1)NC(=O)[C@@H]1CCCN1C(=O)[C@H](CCCN=C(N)N)NC(=O)[C@H](CCCN=C(N)N)NC(=O)[C@@H]1CCCN1C(=O)[C@H](CCCCN)NC(=O)[C@H](CC(N)=O)NC(=O)[C@H](CCC(=O)O)NC(=O)[C@H](Cc1ccc(O)cc1)NC(C)=O)C(=O)N[C@@H](CC(C)C)C(=O)O` (Ac-YENKPRRPYIL-OH), in assay [2], the Ki amounted to 0.21 nM.
Same read-out and setting: the result for `CC[C@H](C)[C@H](NC(=O)[C@H](Cc1ccc(O)cc1)NC(=O)[C@@H]1CCCN1C(=O)[C@H](C)NC(=O)[C@@H](N)CCCN=C(N)N)C(=O)N[C@@H](CC(C)C)C(=O)O` reads 2.1 nM; that for `CC[C@H](C)[C@H](NC(=O)[C@H](Cc1ccc(O)cc1)NC(=O)[C@@H]1CCCN1C(=O)[C@H](CCCNC(=N)N)NC(=O)[C@H](C)N)C(=O)N[C@@H](CC(C)C)C(=O)O`, 0.25 nM.
The same measure, in the same setting: next, `CC[C@H](C)[C@H](NC(=O)[C@H](Cc1ccc(O)cc1)NC(=O)[C@@H]1CCCN1C(=O)[C@H](CCCNC(=N)N)NC(=O)[C@H](CCCNC(=N)N)NC(=O)[C@@H]1CCCN1C(C)=O)C(=O)N[C@@H](CC(C)C)C(=O)O` (Ac-PRRPYIL-OH): 0.1 nM.
As to `CC[C@@H](C)[C@H](NC(=O)[C@H](C)NC(=O)[C@@H]1CCCN1C(=O)[C@H](CCCN=C(N)N)NC(=O)[C@@H](N)CCCN=C(N)N)C(=O)N[C@@H](CC(C)C)C(=O)O`, in assay [1], the Ki ratio stood at 6100.
As for `CC[C@H](C)[C@H](NC(=O)[C@H](Cc1ccc(O)cc1)NC(=O)[C@@H]1CCCN1C(=O)[C@H](CCCNC(=N)N)NC(=O)[C@H](CCCNC(=N)N)NC(=O)[C@@H]1CCCN1C(=O)[C@H](CCCCN)NC(=O)[C@H](CC(N)=O)NC(C)=O)C(=O)N[C@@H](CC(C)C)C(=O)O` (Ac-NKPRRPYIL-OH), the Ki in assay [2] came out at 0.013 nM. In other words, the picomolar range.
Still for that read-out and setting: the result for `CC[C@H](C)[C@H](NC(=O)[C@H](Cc1ccc(O)cc1)NC(=O)[C@@H]1CCCN1C(=O)[C@H](CCCNC(=N)N)NC(=O)[C@@H](N)CCCNC(=N)N)C(=O)N[C@@H](C)C(=O)O` reads 200 nM.
